Laboratory results from US7138361B2, “Herbicidal heterocycles” (E. I. du Pont de Nemours and Company, priority 2000, dated 2006).

Assays:
Type in all cases: in vivo
Nightshade [1] = test: Test C preemergence; settings: Rate 250 g/ha, visual evaluation after 12 to 14 days
rice (Oryza saliva) = test: Test C flooded paddy test; settings: for Rice plant response rating: Flooded Paddy, scale 0 to 100, 0 no effect, 100 complete control; for Plant response rating, Rice: flooded paddy test, scale 0 to 100 (0 no effect, 100 complete control)
Method in brief: (§1)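 Ratings come from visual comparison with control plants after 12 to 14 days in the greenhouse. Each species was at the 2-leaf stage when the flooded paddy was treated. Scores run from 0, meaning no effect, to 100, meaning complete control.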

[2] = system: barnyardgrass (Echinochloa crus-galli); test: Test C flooded paddy test; settings: for Barnyardgrass plant response rating: Flooded Paddy, scale 0 to 100, 0 no effect, 100 complete control; for Plant response rating, Barnyardgrass: flooded paddy test, scale 0 to 100 (0 no effect, 100 complete control)
Method in brief: as §1

[3] = system: duck salad (Heteranthera limosa); test: Test C flooded paddy test; settings: for Ducksalad plant response rating: Flooded Paddy, scale 0 to 100, 0 no effect, 100 complete control; for Plant response rating, Ducksalad: flooded paddy test, scale 0 to 100 (0 no effect, 100 complete control)
Method in brief: as §1

[4] = system: smallflower flatsedge (Cyperus difformis); test: Test C flooded paddy test; settings: for Flatsedge plant response rating: Flooded Paddy, scale 0 to 100, 0 no effect, 100 complete control; for Plant response rating, Flatsedge: flooded paddy test, scale 0 to 100 (0 no effect, 100 complete control)
Method in brief: as §1

Sunflower = test: Test C preemergence
[5] = system: cocklebur (Xanthium strumarium); test: Test C preemergence
Method in brief: (§2)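 Formulation: non-phytotoxic solvent mix incl. surfactant. Pre: applied right after planting. Post: 1–4-leaf seedlings. Read: visual 0–100, day 12–14, greenhouse.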

soybean (Glycine max) = test: Test C preemergence
Method in brief: as §2

[6] = system: bermudagrass (Cynodon dactylon); test: Test C preemergence
Method in brief: as §2

[7] = system: pigweed (Amaranthus retroflexus); test: Test C preemergence
Method in brief: as §2

[8] = system: Surinam grass (Brachiaria decumbens); test: Test C preemergence
Method in brief: as §2

[9] = system: johnsongrass (Sorghum halepense); test: Test C preemergence
Method in brief: as §2

[10] = system: giant foxtail (Setaria faberii); test: Test C preemergence
Method in brief: as §2

Nightshade [11] = test: Test C preemergence
corn (Zea mays) = test: Test C preemergence
Method in brief: as §2

[12] = system: yellow nutsedge (Cyperus esculentus); test: Test C preemergence
Method in brief: as §2

[13] = system: goosegrass (Eleusine indica); test: Test C preemergence
Method in brief: as §2

[14] = system: morningglory (Ipomoea hederacea); test: Test C preemergence
Method in brief: as §2

[15] = system: crabgrass (Digitaria sanguinalis); test: Test C preemergence
Method in brief: as §2

kochia (Kochia scoparia) = test: Test C preemergence
Method in brief: as §2

[16] = system: velvetleaf (Abutilon theophrasti); test: Test C preemergence
Method in brief: as §2

[17] = system: woolly cupgrass (Eriochloa villosa); test: Test C preemergence
Method in brief: as §2

[18] = Rate 62 g/ha, scale 0 to 100, 0 no effect, 100 complete control
[19] = Preemergence, Rate 500 g/ha, scale 0 to 100
[20] = preemergence, Rate 250 g/ha, visual evaluation after 12 to 14 days
[21] = preemergence, Rate 125 g/ha, scale 0 to 100, 0 no effect, 100 complete control

Question: How did the “Plant response rating (0 to 100), Nightshade” value (Nightshade [1]) turn out when `CC(C)(C)c1ccn(C2CCN(c3cccc(C(F)(F)F)c3)C2=S)n1` (stereo not shown) [Compound 22] was run?
Answer: The value was 40.

Question: And the “Rice plant response rating” value (rice (Oryza saliva); Rate 250 g/ha)?
Answer: The value was 20.

Question: And the “Rice plant response rating” value (rice (Oryza saliva); Rate 500 g/ha)?
Answer: The value was 40.

Question: And the “Plant response rating, Rice” value (rice (Oryza saliva); Rate 62 g/ha)?
Answer: Its value is 20.

Question: What about the “Plant response rating, Rice” value (rice (Oryza saliva); Rate 125 g/ha) of the same molecule?
Answer: Its value is 20.

Question: And the “Barnyardgrass plant response rating” value ([2]; Rate 250 g/ha)?
Answer: Its value is 100.

Question: What about the “Barnyardgrass plant response rating” value ([2]; Rate 500 g/ha) of the same molecule?
Answer: Its value is 100.

Question: And the “Plant response rating, Barnyardgrass” value ([2]; Rate 62 g/ha)?
Answer: Its value is 40.

Question: And the “Plant response rating, Barnyardgrass” value ([2]; Rate 125 g/ha)?
Answer: The value was 80.

Question: And the “Ducksalad plant response rating” value ([3]; Rate 250 g/ha)?
Answer: Its value is 80.

Question: What about the “Ducksalad plant response rating” value ([3]; Rate 500 g/ha) of the same molecule?
Answer: Its value is 100.

Question: What about the “Plant response rating, Ducksalad” value ([3]; Rate 62 g/ha) of the same molecule?
Answer: The value was 50.

Question: And the “Plant response rating, Ducksalad” value ([3]; Rate 125 g/ha)?
Answer: The value was 80.

Question: What about the “Flatsedge plant response rating” value ([4]; Rate 250 g/ha) of the same molecule?
Answer: Its value is 100.

Question: And the “Flatsedge plant response rating” value ([4]; Rate 500 g/ha)?
Answer: Its value is 100.

Question: What about the “Plant response rating, Flatsedge” value ([4]; Rate 62 g/ha) of the same molecule?
Answer: The value was 100.

Question: What about the “Plant response rating, Flatsedge” value ([4]; Rate 125 g/ha) of the same molecule?
Answer: Its value is 100.

Question: What about the “Plant response rating, Sunflower” value (Sunflower; [18]) of the same molecule?
Answer: The value was 0.

Question: What about the “Plant response rating, Sunflower” value (Sunflower; Rate 500 g/ha, scale 0 to 100) of the same molecule?
Answer: Its value is 0.

Question: What about the “Plant response rating, Cocklebur” value [5, 19] of the same molecule?
Answer: Its value is 0.

Question: And the “Plant response rating, Cocklebur” value [5, 18]?
Answer: The value was 0.

Question: And the “Plant response rating (0 to 100), Cocklebur” value [5, 20]?
Answer: Its value is 0.

Question: What about the “Plant response rating, Cocklebur” value [5, 21] of the same molecule?
Answer: The value was 0.

Question: And the “Plant response rating, Soybean” value (soybean (Glycine max); [19])?
Answer: Its value is 40.

Question: What about the “Plant response rating, Soybean” value (soybean (Glycine max); [18]) of the same molecule?
Answer: The value was 30.

Question: And the “Plant response rating (0 to 100), Soybean” value (soybean (Glycine max); [20])?
Answer: Its value is 40.

Question: And the “Plant response rating, Soybean” value (soybean (Glycine max); [21])?
Answer: The value was 40.

Question: And the “Plant response rating, Bermudagrass” value [6, 19]?
Answer: The value was 100.

Question: What about the “Plant response rating, Bermudagrass” value [6, 18] of the same molecule?
Answer: Its value is 30.

Question: And the “Plant response rating (0 to 100 where 0 is no effect and 100 is complete control), Bermudagrass” value [6, 20]?
Answer: Its value is 100.

Question: And the “Plant response rating, Bermudagrass” value [6, 21]?
Answer: The value was 100.

Question: And the “Plant response rating, Pigweed” value [7, 19]?
Answer: Its value is 100.

Question: And the “Plant response rating, Pigweed” value [7, 18]?
Answer: The value was 100.

Question: What about the “Plant response rating (0 to 100), Pigweed” value [7, 20] of the same molecule?
Answer: The value was 50.

Question: What about the “Plant response rating, Pigweed” value [7, 21] of the same molecule?
Answer: Its value is 50.

Question: And the “Plant response rating, Surinam grass” value [8, 19]?
Answer: Its value is 90.

Question: And the “Plant response rating, Surinam grass” value [8, 18]?
Answer: Its value is 0.

Question: What about the “Plant response rating (0 to 100), Surinam grass” value [8, 20] of the same molecule?
Answer: The value was 60.

Question: And the “Plant response rating, Surinam grass” value [8, 21]?
Answer: The value was 40.

Question: What about the “Plant response rating, Johnsongrass” value [9, 19] of the same molecule?
Answer: Its value is 40.

Question: And the “Plant response rating, Johnsongrass” value [9, 18]?
Answer: The value was 20.

Question: And the “Plant response rating (0 to 100), Johnsongrass” value [9, 20]?
Answer: Its value is 40.

Question: What about the “Plant response rating, Johnsongrass” value [9, 21] of the same molecule?
Answer: The value was 30.

Question: And the “Plant response rating, Foxtail, Giant” value [10, 19]?
Answer: Its value is 100.

Question: What about the “Plant response rating, Foxtail, Giant” value [10, 18] of the same molecule?
Answer: The value was 30.

Question: What about the “Plant response rating (0 to 100), Foxtail, Giant” value [10, 20] of the same molecule?
Answer: Its value is 0.

Question: What about the “Plant response rating, Foxtail, Giant” value [10, 21] of the same molecule?
Answer: Its value is 0.

Question: What about the “Plant response rating, Nightshade” value (Nightshade [11]; [18]) of the same molecule?
Answer: The value was 0.

Question: And the “Plant response rating, Nightshade” value (Nightshade [11]; Rate 125 g/ha, scale 0 to 100, 0 no effect, 100 complete control)?
Answer: The value was 0.

Question: What about the “Plant response rating, Nightshade” value (Nightshade [11]; Rate 500 g/ha, scale 0 to 100) of the same molecule?
Answer: The value was 80.

Question: And the “Plant response rating, Corn” value (corn (Zea mays); [19])?
Answer: The value was 30.

Question: And the “Plant response rating, Corn” value (corn (Zea mays); [18])?
Answer: Its value is 20.

Question: And the “Plant response rating (0 to 100), Corn” value (corn (Zea mays); [20])?
Answer: The value was 20.

Question: What about the “Plant response rating, Corn” value (corn (Zea mays); [21]) of the same molecule?
Answer: The value was 20.

Question: What about the “Plant response rating, Nutsedge” value [12, 19] of the same molecule?
Answer: Its value is 20.

Question: What about the “Plant response rating, Nutsedge” value [12, 18] of the same molecule?
Answer: Its value is 0.

Question: And the “Plant response rating (0 to 100), Nutsedge” value [12, 20]?
Answer: The value was 0.

Question: And the “Plant response rating, Nutsedge” value [12, 21]?
Answer: The value was 0.

Question: And the “Plant response rating, Goosegrass” value [13, 19]?
Answer: The value was 100.

Question: And the “Plant response rating, Goosegrass” value [13, 18]?
Answer: The value was 90.

Question: What about the “Plant response rating (0 to 100), Goosegrass” value [13, 20] of the same molecule?
Answer: The value was 100.

Question: What about the “Plant response rating, Goosegrass” value [13, 21] of the same molecule?
Answer: The value was 90.

Question: And the “Plant response rating, Morningglory” value [14, 19]?
Answer: Its value is 0.

Question: What about the “Plant response rating, Morningglory” value [14, 18] of the same molecule?
Answer: The value was 0.

Question: What about the “Plant response rating (0 to 100), Morningglory” value [14, 20] of the same molecule?
Answer: Its value is 0.

Question: What about the “Plant response rating, Morningglory” value [14, 21] of the same molecule?
Answer: The value was 0.

Question: What about the “Plant response rating, Crabgrass” value [15, 19] of the same molecule?
Answer: Its value is 100.

Question: And the “Plant response rating, Crabgrass” value [15, 18]?
Answer: The value was 50.

Question: And the “Plant response rating (0 to 100), Crabgrass” value [15, 20]?
Answer: Its value is 100.

Question: And the “Plant response rating, Crabgrass” value [15, 21]?
Answer: The value was 100.

Question: And the “Plant response rating, Kochia” value (kochia (Kochia scoparia); [19])?
Answer: The value was 100.

Question: What about the “Plant response rating, Kochia” value (kochia (Kochia scoparia); [18]) of the same molecule?
Answer: Its value is 100.

Question: What about the “Plant response rating (0 to 100), Kochia” value (kochia (Kochia scoparia); [20]) of the same molecule?
Answer: The value was 100.

Question: And the “Plant response rating, Kochia” value (kochia (Kochia scoparia); [21])?
Answer: The value was 100.

Question: What about the “Plant response rating, Velvetleaf” value [16, 19] of the same molecule?
Answer: The value was 0.

Question: What about the “Plant response rating, Velvetleaf” value [16, 18] of the same molecule?
Answer: Its value is 0.

Question: And the “Plant response rating (0 to 100), Velvetleaf” value [16, 20]?
Answer: Its value is 0.

Question: And the “Plant response rating, Velvetleaf” value [16, 21]?
Answer: Its value is 0.

Question: And the “Plant response rating, Cupgrass, Woolly” value [17, 19]?
Answer: The value was 100.

Question: What about the “Plant response rating, Cupgrass, Woolly” value [17, 18] of the same molecule?
Answer: The value was 40.

Question: And the “Plant response rating (0 to 100), Cupgrass, Woolly” value [17, 20]?
Answer: Its value is 100.

Question: What about the “Plant response rating, Cupgrass, Woolly” value [17, 21] of the same molecule?
Answer: The value was 70.
